Results reported in US9487462B2, “Inhibitors of matrix metalloproteinases” (PharmaHungary 2000 Kft., priority 2010, dated 2016).
Like-named read-outs stand apart in the source and are kept apart here.

How the values were obtained:
[1] = target: MMP-2 (Rattus norvegicus (Rat), UniProt P33436); assay: In vitro zymography assay (gelatin), MMP-2; assay type: biochemical
Procedure: (§1) MMP-2 and MMP-9 enzymes were isolated from rat hearts and from rat spleen while human, recombinant MMP-1 and MMP-13 enzymes used were commercial. MMP-2, -9, -13 enzymes were separated by electrophoresis during non-reducing conditions on 8% SDS-polyacrylamide gels copolymerized with 2 mg/ml gelatin from porcine skin (Sigma Aldrich) while MMP-1 was separated under the same conditions on 8% SDS-polyacrylamide gels copolymerized with 2 mg/ml casein (Sigma Aldrich). […] In case of MMP-13 p-aminophenylmercuric acetate (APMA) was used for enzyme activation at 37° C. for 30 min. After electrophoresis, gels were washed in 2.5% Triton-X 100 with agitation and then incubated for 20 hrs at 37° C. in enzyme incubation buffer (50 mM Tris-HCl, pH 7.5, containing 5 mM CaCl2, 200 mM NaCl) with or without MMP inhibitor. Zymographic gels were stained in Coomassie Brilliant Blue R-250 and de-stained. Gelatin and casein zymograms were scanned. MMP activity is detected as a white zone on a blue background and the clear bands in the gel can be quantified by densitometry. The obtained density values were measured and % inhibition values calculated (Kupai et al., 2010). The table below summarizes the prescreen inhibition values determined for different MMP inhibitors on MMP1, -2, -9, -13.

[2] = target: T1, MMP13 (Homo sapiens (Human), UniProt P45452); assay: MMP activity assay (fluorogenic substrate), MMP13 catalytic domain; assay type: biochemical
Procedure: (§2) MMP activity assays were conducted as follows: MMP2, MMP9, MMP13 catalytic domain was expressed in E. coli in form of inclusion bodies followed by refolding and purification.
(§3) The Protocol of the Activity Assay:
Stock solution of substrate (Mca-Lys-Pro-Leu-Gly-Leu-Dpa-Ala-Arg-NH2) was prepared in DMSO at a concentration of 6 mM. Assays were performed in an assay buffer (50 mM Tris pH 7.5, 300 mM NaCl, 10 μM ZnSO4, 5 mM CaCl2, 0.005% Brij-35). The final DMSO concentration in all assays was 1.0%. […] The assays were carried out at 37° C. […] The reaction mixtures were preincubated with the inhibitors for 30 minutes. The reactions were started by the addition of MMP substrate, and the fluorescence intensity changes were measured after 60 minutes. The obtained fluorescence values were normalized and % inhibition values calculated. Dose response curves were determined from 6 concentration points using three fold dilution steps, each concentration point was determined in duplicate. IC50 values were calculated from the dose response curves.

[3] = test system: neonatal rat cardiac myocytes; assay: Cytoprotective effect in cardiac myocytes subjected to hypoxia and reoxygenation; assay type: cell-based
Procedure: Neonatal rat hearts were digested and isolated cardiomyocytes were plated onto 24-well plastic plates at […]. The cells were maintained at 37° C. in a humidified atmosphere of 5% CO2 and 95% air in a CO2 incubator until confluence was reached. Cultures at day 3 were used for treatments. Cells were kept under normoxic or simulated ischemic conditions, i.e. the growth medium was changed to a normoxic or hypoxic solution and the cells were incubated under 95% air and 5% CO2 or 95% N2 and 5% CO2 at 37° C. for 4 h, respectively as described in detail (Gorbe A, Giricz Z, Szunyog A, Csont T, Burley D S, Baxter G F, Ferdinandy P. Role of cGMP-PKG signaling in the protection of neonatal rat cardiac myocytes subjected to simulated ischemia/reoxygenation. Basic Res Cardiol. 105:643-650, 2010). The positive control ilomastate (0.5 microM) and MMP-inhibitors at different effective concentrations (EC 5, EC 10, EC 20, and EC50 as determined in previous test examples) were applied during normoxia or simulated ischemia and also during reoxygenation. The vehicle was DMSO. Cell viability was determined after Calcein A M fluorescent staining as described (Karliner J S, Honbo N, Summers K, Gray M O, Goetzl E J. The lysophospholipids sphingosine-1-phosphate and lysophosphatidic acid enhance survival during hypoxia in neonatal rat cardiac myocytes. J Mol Cell Cardiol, 33:1713-7, 2001). Total cell count was determined after digitonin treatment to permeabilize the cells by using propidium iodine fluorescent staining (Roy S S, Hajnoczky G. Calcium, mitochondria and apoptosis studied by fluorescence measurements. Methods. 46:213-223, 2008).

[4] = Cytotoxicity, alamarBlue viability, MRC-5; assay type: cell-based; conditions: human, MRC-5 fibroblast cells, 48 hours incubation, read-out: MRC-5 LC50
Procedure: (§4) Beside the inhibitory effect on MMPs we tested the cytotoxicity of the selected compounds. These measurements were done in parallel on two cell lines. One of them was the healthy human fibroblast cell line MRC-5 while the other was the human colon tumor cell line HCT116. The viability of the cells was monitored using alamarBlue. This dye is reduced by the cells resulting in an increased fluorescent signal which is proportional to the number of living cells. Cells were incubated with the dilutions of the tested compounds for 48 hours then alamarBlue was added to them for 4 hours. After that the fluorescence changes were detected using excitation at 540 nm and emission wavelength of 590 nm by a Wallac 1420 Microplate Reader. IC50 values were determined for the compounds using six concentrations and duplicate points for each concentration.

[5] = Cytotoxicity, alamarBlue viability, HCT116; assay type: cell-based; conditions: human, HCT116 colon tumor cells, 48 hours incubation, read-out: HCT116 LC50
Procedure: as §4

[6] = target: MMP9 (Homo sapiens, UniProt P14780); assay: MMP activity assay (fluorogenic substrate), MMP9 catalytic domain; assay type: biochemical; conditions: Table 2
Procedure: as §2, §3
(§5) Stock solution of substrate (Mca-Lys-Pro-Leu-Gly-Leu-Dpa-Ala-Arg-NH2) was prepared in DMSO at a concentration of 6 mM. Assays were performed in an assay buffer (50 mM Tris pH 7.5, 300 mM NaCl, 10 μM ZnSO4, 5 mM CaCl2, 0.005% Brij-35). The final DMSO concentration in all assays was 1.0%. […] The assays were carried out at 37° C. The fluorescence changes, resulting from the substrate cleavage, were detected using excitation at 340 nm and emission wavelength of 405 nm using a Wallac 1420 Microplate Reader. The reaction mixtures were preincubated with the inhibitors for 30 minutes. The reactions were started by the addition of MMP substrate, and the fluorescence intensity changes were measured after 60 minutes. The obtained fluorescence values were normalized and % inhibition values calculated. Dose response curves were determined from 6 concentration points using three fold dilution steps, each concentration point was determined in duplicate. IC50 values were calculated from the dose response curves.

[7] = target: T2, MMP1 (Homo sapiens (Human), UniProt P03956); assay: In vitro zymography assay (casein), MMP-1; assay type: biochemical; conditions: % ± SD
Procedure: as §1
Target sequence in this assay (P03956 100-469): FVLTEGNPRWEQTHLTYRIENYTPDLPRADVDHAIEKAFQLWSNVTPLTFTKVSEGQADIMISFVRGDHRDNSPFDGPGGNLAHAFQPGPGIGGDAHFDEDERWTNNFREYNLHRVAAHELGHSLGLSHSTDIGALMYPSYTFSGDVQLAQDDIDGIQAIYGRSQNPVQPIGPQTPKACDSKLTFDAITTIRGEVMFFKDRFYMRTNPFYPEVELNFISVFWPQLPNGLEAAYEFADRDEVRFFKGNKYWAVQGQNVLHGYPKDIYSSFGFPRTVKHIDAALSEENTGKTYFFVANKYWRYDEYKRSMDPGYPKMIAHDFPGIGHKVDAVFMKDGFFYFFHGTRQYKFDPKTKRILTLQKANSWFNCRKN

[8] = target: T2, MMP1; assay: MMP activity assay (fluorogenic substrate), MMP1; assay type: biochemical; conditions: Table 2; read-out: MM1 IC50
Target sequence in this assay (P03956 100-469, species assumed): as the sequence (P03956 100-469) above

[9] = target: MMP2 (Homo sapiens, UniProt P08253); assay: MMP activity assay (fluorogenic substrate), MMP2 catalytic domain; assay type: biochemical; conditions: Table 2; read-out: MMP2 IC50
Procedure: as §2, §3, §5

[10] = target: T1, MMP13; assay: In vitro zymography assay (gelatin), MMP-13; assay type: biochemical; conditions: % ± SD; for % inhibition MMP-13 (50 kDa): 1 μM; for inhibition at 100 µM: read-out: % inhibition MMP-13 (50 kDa)
Procedure: as §1

[11] = % ± SD, read-out: % inhibition MMP-2 (72 kDa)

Chain of MMP-2 (P33436 110-662): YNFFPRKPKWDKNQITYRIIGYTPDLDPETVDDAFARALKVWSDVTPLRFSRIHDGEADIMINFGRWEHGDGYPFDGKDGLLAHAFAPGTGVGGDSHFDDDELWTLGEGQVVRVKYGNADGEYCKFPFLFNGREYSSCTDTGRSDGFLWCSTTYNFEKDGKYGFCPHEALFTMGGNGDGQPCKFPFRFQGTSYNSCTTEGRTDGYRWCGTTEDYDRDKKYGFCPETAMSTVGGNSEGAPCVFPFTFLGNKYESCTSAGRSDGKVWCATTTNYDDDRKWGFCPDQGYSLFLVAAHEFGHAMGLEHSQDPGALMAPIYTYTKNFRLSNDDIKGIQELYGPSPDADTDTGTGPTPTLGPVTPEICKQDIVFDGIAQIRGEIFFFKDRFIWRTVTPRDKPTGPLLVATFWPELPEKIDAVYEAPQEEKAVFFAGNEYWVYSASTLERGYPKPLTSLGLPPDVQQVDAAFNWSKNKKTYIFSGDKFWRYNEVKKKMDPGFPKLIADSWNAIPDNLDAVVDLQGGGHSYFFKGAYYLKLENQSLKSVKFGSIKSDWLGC

Which IC50 [1] does the source give for CNC(=O)[C@H](Cc1c[nH]c2ccccc12)NC(=O)[C@@H](CC(=O)NO)CC(C)C [ilomastat, reference compound] here?
Its IC50 is 0.00071 µM.

What about the IC50 ([2]; read-out: IC50 on MMP13) of the same compound?
Its IC50 is 0.0002 µM.

What about the “cytoprotective effect as compared to vehicle-treated cells” value ([3]; positive control, 0.5 microM) of the same compound?
Its value is “approximately 120%”.

For O=C(O)c1c[nH]c(CN(Cc2ccc(F)cc2)Cc2ccc(OCc3ccccc3)cc2)n1 [Compound 30, 2-[({[4-(Benzyloxy)phenyl]methyl}[(4-fluorophenyl)methyl]amino)methyl]-1H-imidazole-4-carboxylic acid], which “% inhibition MMP-2 (72 kDa)” value ([1]; 1 μM, % ± SD) is on record?
Its value is “No inhibition”.

What about the inhibition at 100 µM [1, 11] of the same compound?
Its inhibition at 100 µM is 100%.

And the IC50 ([1]; zymography, Table 8, read-out: IC50 on MMP-2)?
The IC50 was 0.081 µM.

What about the CC50 at 48 h [4] of the same compound?
Its CC50 at 48 h is 30 µM.

What about the IC50 ([2]; Table 2, read-out: MMP13 IC50) of the same compound?
The IC50 was 1.76 µM.

And the CC50 at 48 h [5]?
Its CC50 at 48 h is 6 µM.

And the IC50 [6]?
The IC50 was 13 µM.

What about the “% inhibition MMP-1 (52 kDa)” value ([7]; 1 μM) of the same compound?
Its value is “No inhibition”.

And the “% inhibition MMP-1 (55 kDa)” value ([7]; 1 μM)?
Its value is “No inhibition”.

What about the inhibition at 100 µM ([7]; read-out: % inhibition MMP-1 (52 kDa)) of the same compound?
Its inhibition at 100 µM is 63.4 ± 18.3%.

And the inhibition at 100 µM ([7]; read-out: % inhibition MMP-1 (55 kDa))?
The inhibition at 100 µM was 61.1 ± 6.78%.

What about the IC50 [8] of the same compound?
Its IC50 is 3.9 µM.

And the IC50 [9]?
Its IC50 is 6.6 µM.

What does the source list for O=C(O)c1c[nH]c(CN(Cc2ccc(F)cc2)Cc2ccc(OC(c3ccccc3)c3ccccc3)cc2)n1 [Compound 22, 2-[({[4-(Diphenylmethoxy)phenyl]methyl}[(4-fluorophenyl)methyl]amino)methyl]-1H-imidazole-4-carboxylic acid]?
CC50 at 48 h [4]: 2 µM; IC50 ([2]; Table 2, read-out: MMP13 IC50): 0.28 µM; CC50 at 48 h [5]: 0.7 µM; IC50 [6]: 8 µM; % inhibition MMP-13 (50 kDa) [10]: No inhibition; inhibition at 100 µM [10]: 71.7 ± 4.49%; IC50 [8]: 16 µM; IC50 [9]: 35 µM

For O=C(O)c1csc(CN(Cc2ccc(OCc3ccccc3)cc2)Cc2cccnc2)n1 [Compound 14, 2-[({[4-(Benzyloxy)phenyl]methyl}(pyridin-3-ylmethyl)amino)methyl]-1,3-thiazole-4-carboxylic acid], which “% inhibition MMP-2 (72 kDa)” value ([1]; 1 μM, % ± SD) is on record?
Its value is “No nhibiton”.

What about the inhibition at 100 µM [1, 11] of the same compound?
The inhibition at 100 µM was 100%.

What about the CC50 at 48 h [4] of the same compound?
The CC50 at 48 h was 42 µM.

What about the IC50 ([2]; Table 2, read-out: MMP13 IC50) of the same compound?
Its IC50 is 8 µM.

What about the CC50 at 48 h [5] of the same compound?
The CC50 at 48 h was 19 µM.

And the IC50 [6]?
Its IC50 is > 500 µM.

And the IC50 [8]?
The IC50 was 240 µM.

And the IC50 [9]?
Its IC50 is 90 µM.

What does the source list for O=C(O)c1csc(CN(Cc2ccc(OCc3ccccc3)cc2)Cc2cccc(F)c2)n1 [Compound 5, 2-[({[4-(Benzyloxy)phenyl]methyl}[(3-fluorophenyl)methyl]amino)methyl]-1,3-thiazole-4-carboxylic acid]?
% inhibition MMP-2 (72 kDa) ([1]; 1 μM, % ± SD): No inhibition; inhibition at 100 µM [1, 11]: 11.1 ± 1.58%; CC50 at 48 h [4]: 43 µM; IC50 ([2]; Table 2, read-out: MMP13 IC50): 4.7 µM; CC50 at 48 h [5]: 3.5 µM; IC50 [6]: 9.8 µM; IC50 [8]: 6 µM; IC50 [9]: 25 µM

What does the source list for O=C(O)c1csc(CN(Cc2ccc(OCc3ccncc3)cc2)Cc2cccnc2)n1 [Compound 12, 2-{[(Pyridin-3-ylmethyl)({[4-(pyridin-4-ylmethoxy)phenyl]methyl})amino]methyl}-1,3-thiazole-4-carboxylic acid]?
inhibition at 1 µM ([1]; 1 μM, % ± SD, read-out: % inhibition MMP-2 (72 kDa)): 5.59 ± 11.8%; inhibition at 100 µM [1, 11]: 4.78 ± 7.18%; CC50 at 48 h [4]: 90 µM; IC50 ([2]; Table 2, read-out: MMP13 IC50): 8.5 µM; CC50 at 48 h [5]: 37 µM; IC50 [6]: > 500 µM; IC50 [8]: > 500 µM; IC50 [9]: > 500 µM

What does the source list for O=C(O)c1csc(CN(Cc2ccc(OCc3cccnc3)cc2)Cc2cccnc2)n1 [Compound 10, 2-[({[4-(Pyridin-3-ylmethoxy)phenyl]methyl}(pyridin-3-ylmethyl)amino)methyl]-1,3-thiazole-4-carboxylic acid]?
CC50 at 48 h [4]: 20 µM; IC50 ([2]; Table 2, read-out: MMP13 IC50): 1.5 µM; CC50 at 48 h [5]: 20 µM; IC50 [6]: > 500 µM; Cytoprotective effect, % cell survival as compared to vehicle DMSO ([3]; normoxia, EC5 concentration 0.3 microM): 112 ± 3 %; Cytoprotective effect, % cell survival as compared to vehicle DMSO ([3]; normoxia, EC10 concentration 1.0 microM): 112 ± 1 %; Cytoprotective effect, % cell survival as compared to vehicle DMSO ([3]; normoxia, EC20 concentration 3.0 microM): 115 ± 3 %; Cytoprotective effect, % cell survival as compared to vehicle DMSO ([3]; normoxia, EC50 concentration 9.0 microM): 108 ± 1%; Cytoprotective effect, % cell survival as compared to vehicle DMSO ([3]; simulated ischemia, EC5 concentration 0.3 microM): 117 ± 2 %; Cytoprotective effect, % cell survival as compared to vehicle DMSO ([3]; simulated ischemia, EC10 concentration 1.0 microM): 119 ± 2 %; Cytoprotective effect, % cell survival as compared to vehicle DMSO ([3]; simulated ischemia, EC20 concentration 3.0 microM): 123 ± 6 %; Cytoprotective effect, % cell survival as compared to vehicle DMSO ([3]; simulated ischemia, EC50 concentration 9.0 microM): 136 ± 2 %; % inhibition MMP-13 (50 kDa) [10]: No inhibition; inhibition at 100 µM [10]: 53.6 ± 18.9%; IC50 [8]: > 500 µM; IC50 [9]: > 500 µM
